Laboratory results from patent publication US8633134B2, “Substituted amidine compounds for combating animal pests” (priority 2008, dated 2014).

Experiments:
Format in all cases: in vivo
[1] = system: yellowfever mosquito larvae (Aedes aegypti); assay: Larval mosquito water treatment assay; settings: 120 h, 5 DAT (days after treatment), first tier test, in comparison with untreated controls
Procedure: The assay was conducted in 6-well polystyrene plates using one plate per treatment rate. Stock solutions were prepared at 100 and 1000 ppm. Screen rates were at 1 and 10 ppm. Distilled water was added to each well, control wells were treated with acetone. Temephos (Abate technical) was used as the standard at 0.1 ppm. Ten late thirdinstar yellowfever mosquito larvae (Aedes aegypti) in water were added to each well. One drop of liver powder solution (6 g in 100 ml distilled water) was added to each well as a food source daily. Plates were maintained at 22-25° C. and 25-50% RH (relative humidity) and observed daily for dead larvae and pupae at 1, 2, 3, and 5 days after treatment. Dead larvae and all pupae were removed daily. Mortality was defined as an insect incapable of coordinated movement when agitated.

[2] = system: Mediterranean Fruitfly (Ceratitis capitata); assay: Mediterranean fruitfly microtiter plate diet test; settings: 120 h
Procedure: For evaluating control of Mediterranean fruitfly (Ceratitis capitata) the test unit consisted of microtiter plates containing an insect diet and 50-80 C. capitata eggs. The compounds were formulated using a solution containing 75% v/v water and 25% v/v DMSO. Different concentrations of formulated compounds were sprayed onto the insect diet at 5 μl, using a custom built micro atomizer, at two replications.
After application, microtiter plates were incubated at about 28±1° C. and about 80±5% relative humidity for 5 days. Egg and larval mortality was then visually assessed.

[3] = system: Diamond Back Moth (Plutella xylostella); assay: Diamond back moth leaf dip test; settings: foliar, 120 h
Procedure: The active compound is dissolved at the desired concentration in a mixture of 1:1 (vol:vol) distilled water:acteon. The test solution is prepared at the day of use and in general at concentrations of […].
Leaves of Chinese cabbage were dipped in test solution and air-dried. Treated leaves were placed in petri dished lined with moist filter paper. Mortality was recorded 24, 72, and 120 hours after treatment.

[4] = system: Orchid Thrips (Dichromothrips corbetti); assay: Orchid thrips floral-immersion test; settings: 96 h
Procedure: Dichromothrips corbetti adults used for bioassay are obtained from a colony maintained continuously under laboratory conditions. For testing purposes, the test compound is diluted to a concentration of 300 ppm (wt compound: vol diluent) in a 1:1 mixture of acetone:water (vol:vol), plus 0.01% vol/vol Kinetic® surfactant.
Thrips potency of each compound is evaluated by using a floral-immersion technique. Plastic petri dishes are used as test arenas. All petals of individual, intact orchid flowers are dipped into treatment solution and allowed to dry. Treated flowers are placed into individual petri dishes along with 10-15 adult thrips. The petri dishes are then covered with lids. All test arenas are held under continuous light and a temperature of about 28° C. for duration of the assay. After 4 days, the numbers of live thrips are counted on each flower, and along inner walls of each petri dish. The level of thrips mortality is extrapolated from pre-treatment thrips numbers.

[5] = system: House Fly Adults (Musca domestica); assay: House fly adults glass vial contact assay; settings: 48 h after treatment, in comparison with untreated controls
Procedure: If not otherwise specified, the tests were conducted as glass vial contact assays. Glass vials (20 ml scintillation vials) were used. Treatment solutions were mixed with technical grade chemicals diluted in acetone. Treatment solutions needed for the assays included generally 1 and 10 ppm (0.01 and 0.1 μg/cm^2, respectively), but optionally also 100 and/or 1000 ppm for first tier vials. As commercial standard, alphacypermethrin, was run at 1 ppm. As solvent control, acetone was used for the assay. Treatment solution was pipetted into the bottom of each vial. Each vial was turned on its side and placed onto a commercial grade hot dog roller without applying heat. The uncapped vials were allowed to roll to allow for the acetone treatment to vent off. After drying, the vials were placed into the compartmented vial shipping boxes. The workstation was prepared by chilling the table and plastic Petri dishes with the inside wall coated with Fluon. A weigh boat of 10% sugar water saturated cotton dental pellets was also prepared. The animal pests were collected into a tube with a rechargeable insect vacuum. The tube of animal pests was placed in a laboratory refrigerator until the animal pests were incapacitated. The animal pests were emptied into chilled Petri dish. A small cotton dental pellet was soaked in water or in 10 wt % sugar water, whereas the excess solution was gently squeezed out. […]

[6] = system: Tobacco Budworm (Heliothis virescens); assay: Tobacco budworm cotton plant foliar spray test; settings: 96 h
Procedure: (§1) The active compounds were formulated in cyclohexanone as a 10,000 ppm solution supplied in tubes. The tubes were inserted into an automated electrostatic sprayer equipped with an atomizing nozzle and they served as stock solutions for which lower dilutions were made in 50% acetone:50% water (v/v). A nonionic surfactant (Kinetic®) was included in the solution at a volume of 0.01% (v/v).
Cotton plants were grown 2 plants to a pot and selected for treatment at the cotyledon stage. Test solutions were sprayed onto the foliage by an automated electrostatic plant sprayer equipped with an atomizing spray nozzle. The plants were dried in the sprayer fume hood and then removed from the sprayer. Each pot was placed into perforated plastic bags with a zip closure. About 10 to 11 budworm larvae were placed into the bag and the bags zipped closed. Test plants were maintained in a growth room at about 25° C. and about 20-40% relative humidity for 4 days, avoiding direct exposure to fluorescent light (24 hour photoperiod) to prevent trapping of heat inside the bags. Mortality and reduced feeding were assessed 4 days after treatment, compared to untreated control plants.

[7] = system: Southern Armyworm (Spodoptera eridania); assay: Southern armyworm lima bean foliar spray test; settings: 96 h
Procedure: as §1
Lima bean plants (variety Sieva) were grown 2 plants to a pot and selected for treatment at the 1st true leaf stage. Test solutions were sprayed onto the foliage by an automated electrostatic plant sprayer equipped with an atomizing spray nozzle. The plants were dried in the sprayer fume hood and then removed from the sprayer. Each pot was placed into perforated plastic bags with a zip closure. About 10 to 11 armyworm larvae were placed into the bag and the bags zipped closed. Test plants were maintained in a growth room at about 25° C. and about 20-40% relative humidity for 4 days, avoiding direct exposure to fluorescent light (24 hour photoperiod) to prevent trapping of heat inside the bags. Mortality and reduced feeding were assessed 4 days after treatment, compared to untreated control plants.

[8] = system: Boll Weevil (Anthonomus grandis); assay: Boll weevil microtiter plate diet test; settings: 120 h
Procedure: For evaluating control of boll weevil (Anthonomus grandis) the test unit consisted of 24-well-microtiter plates containing an insect diet and 20-30 A. grandis eggs.
The compounds were formulated using a solution containing 75% v/v water and 25% v/v DMSO. Different concentrations of formulated compounds were sprayed onto the insect diet at 20 μl, using a custom built micro atomizer, at two replications. After application, microtiter plates were incubated at about 23±1° C. and about 50±5% relative humidity for 5 days. Egg and larval mortality was then visually assessed.

[9] = system: Silverleaf Whitefly (Bemisia argentifolii); assay: Silverleaf whitefly cotton plant spray test; settings: 72 h, 3 days after treatment, in comparison with untreated controls
Description: as §1
Cotton plants at the cotyledon stage (one plant per pot) were sprayed by an automated electrostatic plant sprayer equipped with an atomizing spray nozzle. The plants were dried in the sprayer fume hood and then removed from the sprayer. Each pot was placed into a plastic cup and about 10 to 12 whitefly adults (approximately 3-5 days old) were introduced. The insects were collected using an aspirator and a nontoxic Tygon® tubing connected to a barrier pipette tip. The tip, containing the collected insects, was then gently inserted into the soil containing the treated plant, allowing insects to crawl out of the tip to reach the foliage for feeding. Cups were covered with a reusable screened lid. Test plants were maintained in a growth room at about 25° C. and about 20-40% relative humidity for 3 days, avoiding direct exposure to fluorescent light (24 hour photoperiod) to prevent trapping of heat inside the cup. Mortality was assessed 3 days after treatment, compared to untreated control plants.

CON=C(c1ccc(C2=NOC(c3cc(Cl)cc(Cl)c3)(C(F)(F)F)C2)cc1C)N(C)C (stereo not drawn) [Compound 1-3, 4-[5-(3,5-Dichloro-phenyl)-5-trifluoromethyl-4,5-dihydro-isoxazol-3-yl]-N′-methoxy-2,N,N-trimethyl-benzamidine]
≥ 75%: mortality at 1 ppm [1] | mortality at 2500 ppm [2] | mortality at 300 ppm [3] | mortality at 300 ppm [4] | mortality at 10 ppm [5] | mortality at 2500 ppm [6] | mortality at 300 ppm [7] | mortality at 2500 ppm [8] | mortality at 300 ppm [9]
